According to patent US8138168B1 (Takeda Pharmaceutical Company Limited, priority 2007, dated 2012):

Biological target: T1, Recombinant human renin (Homo sapiens, UniProt P00797)
T1 construct: isolate the active form (residues 67-406); made in house; host or cells: FreeStyle 293-F cells (transient expression of pcDNA3.1(+)/hREN)
T1 sequence (P00797 67-406): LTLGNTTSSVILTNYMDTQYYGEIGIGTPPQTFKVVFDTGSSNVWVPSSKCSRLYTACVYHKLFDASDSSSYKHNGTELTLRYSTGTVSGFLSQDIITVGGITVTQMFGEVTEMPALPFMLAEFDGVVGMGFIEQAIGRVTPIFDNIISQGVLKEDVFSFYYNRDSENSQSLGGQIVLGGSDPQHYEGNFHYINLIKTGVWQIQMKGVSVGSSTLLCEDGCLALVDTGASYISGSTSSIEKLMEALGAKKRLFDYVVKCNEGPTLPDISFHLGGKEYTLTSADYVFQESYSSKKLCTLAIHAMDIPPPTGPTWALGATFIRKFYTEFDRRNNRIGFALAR
Assay: In vitro enzymatic activity assay of renin inhibitors (fluorogenic peptide substrate)
Assay type: biochemical
Conditions: for IC50: read-out: IC50 of Exemplified Compounds Against Renin
How it was run: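 Recombinant human renin (3 nM final) pre-incubated 10 min at 37 °C with compounds in pH 7.4 Hepes/EDTA/DTT/0.1 mg/mL BSA/Brij35 buffer (optionally plus 2% BSA), 5% DMSO final; fluorogenic QXL520/HiLyteFluo488 peptide substrate added.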

| SMILES | IC50 [nM] | Eutomer / distomer designation of the separated stereoisomers (isomers separated by preparative SFC, more or less active isomer as renin inhibitor) |
| --- | --- | --- |
| COCCCn1c([C@@H]2CCCN(C(=O)[C@@H]3CN(S(=O)(=O)c4c(F)cccc4F)C[C@H]3N)C2)nc2ccccc21 [Compound 426, ((3R,4S)-4-amino-1-(2,6-difluorophenylsulfonyl)pyrrolidin-3-yl)((R)-3-(1-(3-methoxypropyl)-1H-benzo[d]imidazol-2-yl)piperidin-1-yl)methanone] | 100 to 1000 |  |
| COCCCn1c([C@@H]2CCCN(C(=O)C[C@H](N)Cc3ccc4ccccc4c3)C2)nc2c1CCCC2 [Compound 241, (R)-3-amino-1((R)-3-(1-(3-methoxypropyl)-4,5,6,7-tetrahydro-1H-benzo[d]imidazol-2-yl)piperidin-1-yl)-4-(naphthalen-2-yl)butan-1-one] | 100 to 1000 |  |
| COCCCn1c([C@@H]2CCCN(C(=O)[C@@H]3CN(S(=O)(=O)c4cccc(Cl)c4C)C[C@H]3N)C2)nc2ccccc21 [Compound 353, ((3R,4S)-4-amino-1-(3-chloro-2-methylphenylsulfonyl)pyrrolidin-3-yl)((R)-3-(1-(3-methoxypropyl)-1H-benzo[d]imidazol-2-yl)piperidin-1-yl)methanone] | 100 to 1000 |  |
| COCCCn1c([C@@H]2CCCN(C(=O)C[C@H](N)Cc3ccc(N4CCC(O)CC4)cc3)C2)nc2ccccc21 [Compound 234, (R)-3-amino-4-(4-(4-hydroxypiperidin-1-yl)phenyl)-1-((R)-3-(1-(3-methoxypropyl)-1H-benzo[d]imidazol-2-yl)piperidin-1-yl)butan-1-one] | > 1000 |  |
| N[C@@H](CC(=O)N1CCCC(c2nc3ccccc3[nH]2)C1)Cc1cccc2ccccc12 (stereo partly drawn) [Compound 38, (3R)-1-(3-(1H-benzo[d]imidazol-2-yl)piperidin-1-yl)-3-amino-4-(naphthalen-1-yl)butan-1-one] | > 1000 |  |
| COCCCn1c([C@@H]2CCCN(C(=O)[C@@H]3CN(S(=O)(=O)c4ccc(NC(C)=O)cc4)C[C@H]3N)C2)nc2ccccc21 [Compound 380, N-(4-((3S,4R)-3-amino-4-((R)-3-(1-(3-methoxypropyl)-1H-benzo[d]imidazol-2-yl)piperidine-1-carbonyl)pyrrolidin-1-ylsulfonyl)phenyl)acetamide] | 100 to 1000 |  |
| COCCCn1c([C@@H]2CCCN(C(=O)C[C@H](N)Cc3ccc(-c4ccccc4)cc3)C2)nc2c(C)ccnc21 [Compound 505, (R)-3-amino-4-(biphenyl-4-yl)-1-((R)-3-(3-(3-methoxypropyl)-7-methyl-3H-imidazo[4,5-b]pyridin-2-yl)piperidin-1-yl)butan-1-one] | < 100 |  |
| COCCCn1c([C@@H]2CCCN(C(=O)C[C@H](N)Cc3ccc(-c4ccc5c(c4)CCO5)cc3)C2)nc2c(F)cccc21 [Compound 490, (R)-3-amino-4-(4-(2,3-dihydrobenzofuran-5-yl)phenyl)-1-((R)-3-(4-fluoro-1-(3-methoxypropyl)-1H-benzo[d]imidazol-2-yl)piperidin-1-yl)butan-1-one] | < 100 |  |
| N[C@H]1CCC[C@@H]1C(=O)N1CCCC(c2nc3ccccc3[nH]2)C1 (stereo partly drawn) [Compound 57, (3-(1H-benzo[d]imidazol-2-yl)piperidin-1-yl)((1S,2S)-2-aminocyclopentyl)methanone] | > 1000 |  |
| CCOc1ccc(-c2ccc(C[C@@H](N)CC(=O)N3CCC[C@@H](c4nc5ccccc5n4CCCOC)C3)cc2)cn1 [Compound 138, (R)-3-amino-4-(4-(6-ethoxypyridin-3-yl)phenyl)-1-((R)-3-(1-(3-methoxypropyl)-1H-benzo[d]imidazol-2-yl)piperidin-1-yl)butan-1-one] | < 100 |  |
| O=C(Nc1ccc2ccccc2c1)N1CCCC(c2nc3ccccc3[nH]2)C1 (centres unmarked) [Compound 4, 3-(1H-benzo[d]imidazol-2-yl)-N-(naphthalen-2-yl)piperidine-1-carboxamide] | > 1000 |  |
| COCCCn1c([C@@H]2CCCN(C(=O)C[C@H](N)Cc3ccc(-c4ccc5c(c4)SCC(=O)N5)cc3)C2)nc2c(F)cccc21 [Compound 442, 7-(4-((R)-2-amino-4-((R)-3-(4-fluoro-1-(3-methoxypropyl)-1H-benzo[d]imidazol-2-yl)piperidin-1-yl)-4-oxobutyl)phenyl)-2H-benzo[b][1,4]thiazin-3(4H)-one] | < 100 |  |
| Cc1nc2ccccc2n1[C@H]1CCCN(C(=O)C[C@H](N)Cc2ccc3ccccc3c2)C1 [Compound 244, (R)-3-amino-1-((S)-3-(2-methyl-1H-benzo[d]imidazol-1-yl)piperidin-1-yl)-4-(naphthalen-2-yl)butan-1-one] | > 1000 | Eutomer |
| N[C@@H](CC(=O)N1CCCC(c2nc3ccccc3[nH]2)C1)c1cccc(Cl)c1 (stereo partly drawn) [Compound 30, (3S)-1-(3-(1H-benzo[d]imidazol-2-yl)piperidin-1-yl)-3-amino-3-(3-chlorophenyl)propan-1-one] | > 1000 |  |
| COCCCn1c([C@@H]2CCCN(C(=O)C[C@H](N)CNC(=O)N3CCCC3)C2)nc2ccccc21 [Compound 334, N-((S)-2-amino-4-((R)-3-(1-(3-methoxypropyl)-1H-benzo[d]imidazol-2-yl)piperidin-1-yl)-4-oxobutyl)pyrrolidine-1-carboxamide] | > 1000 |  |
| COCCCc1nc2ccccc2n1[C@@H]1CCCN(C(=O)C[C@H](N)Cc2ccc3ccccc3c2)C1 [Compound 243, (R)-3-amino-1-((R)-3-(2-(3-methoxypropyl)-1H-benzo[d]imidazol-1-yl)piperidin-1-yl)-4-(naphthalen-2-yl)butan-1-one] | > 1000 |  |
| COCCCn1c([C@@H]2CCCN(C(=O)[C@@H]3CN(C(=O)Nc4cccc(OC)c4)C[C@H]3N)C2)nc2ccccc21 [Compound 367, (3S,4R)-3-amino-N-(3-methoxyphenyl)-4-((R)-3-(1-(3-methoxypropyl)-1H-benzo[d]imidazol-2-yl)piperidine-1-carbonyl)pyrrolidine-1-carboxamide] | 100 to 1000 |  |

Results, then the compound that gave them:

| IC50 [nM] | Eutomer / distomer designation of the separated stereoisomers (isomers separated by preparative SFC, more or less active isomer as renin inhibitor) | SMILES |
| --- | --- | --- |
| < 100 |  | COCCCn1c([C@@H]2CCCN(C(=O)C[C@H](N)Cc3ccc(-c4ccccc4F)cc3)C2)nc2ccccc21 [Compound 160, (R)-3-amino-4-(2′-fluorobiphenyl-4-yl)-1-((R)-3-(1-(3-methoxypropyl)-1H-benzo[d]imidazol-2-yl)piperidin-1-yl)butan-1-one] |
| 100 to 1000 |  | COCCCn1c([C@@H]2CCCN(C(=O)C[C@H](N)Cc3cccc(Cl)c3)C2)nc2ccccc21 [Compound 79, (R)-3-amino-4-(3-chlorophenyl)-1((R)-3-(1-(3-methoxypropyl)-1H-benzo[d]imidazol-2-yl)piperidin-1-yl)butan-1-one] |
| < 100 |  | COCCCn1c([C@@H]2CCCN(C(=O)C[C@H](N)Cc3ccc(-c4ccc(NC(=O)CO)cc4)cc3)C2)nc2ccccc21 [Compound 198, N-(4′-((R)-2-Amino-4-((R)-3-(1-(3-methoxypropyl)-1H-benzo[d]imidazol-2-yl)piperidin-1-yl)-4-oxobutyl)biphenyl-4-yl)-2-hydroxyacetamide] |
| 100 to 1000 |  | COCCCn1c([C@@H]2CCCN(C(=O)C[C@H](N)Cc3ccccc3)C2)nc2ccccc21 [Compound 87, (R)-3-amino-1((R)-3-(1-(3-methoxypropyl)-1H-benzo[d]imidazol-2-yl)piperidin-yl)-4-phenylbutan-1-one] |
| 100 to 1000 |  | COCCCn1c([C@@H]2CCCN(C(=O)C[C@H](N)CNC(=O)c3cccc(Oc4ccccc4)c3)C2)nc2ccccc21 [Compound 270, N-((S)-2-amino-4-((R)-3-(1-(3-methoxypropyl)-1H-benzo[d]imidazol-2-yl)piperidin-1-yl)-4-oxobutyl)-3-phenoxybenzamide] |
| 100 to 1000 |  | COCCCn1c([C@@H]2CCCN(C(=O)C[C@H](N)CNC(=O)c3cccc(F)c3)C2)nc2ccccc21 [Compound 318, N-((S)-2-amino-4-((R)-3-(1-(3-methoxypropyl)-1H-benzo[d]imidazol-2-yl)piperidin-1-yl)-4-oxobutyl)-3-fluorobenzamide] |
| 100 to 1000 |  | COCCCn1c([C@@H]2CCCN(C(=O)C[C@H](N)CNC(=O)c3ccc(-c4cccc(Cl)c4Cl)o3)C2)nc2ccccc21 [Compound 277, N-((S)-2-amino-4-((R)-3-(1-(3-methoxypropyl)-1H-benzo[d]imidazol-2-yl)piperidin-1-yl)-4-oxobutyl)-5-(2,3-dichlorophenyl)furan-2-carboxamide] |
| < 100 |  | COCCCn1c([C@@H]2CCCN(C(=O)C[C@H](N)Cc3ccc(-c4ccccc4Cl)cc3)C2)nc2ccccc21 [Compound 155, (R)-3-amino-4-(2′-chlorobiphenyl-4-yl)-1-((R)-3-(1-(3-methoxypropyl)-1H-benzo[d]imidazol-2-yl)piperidin-1-yl)butan-1-one] |
| > 1000 |  | COCCCn1c([C@H]2CCCN(C(=O)C[C@@H](N)Cc3ccc(Cl)cc3)C2)nc2ccccc21 [Compound 70, (S)-3-amino-4-(4-chlorophenyl)-1-((S)-3-(1-(3-methoxypropyl)-1H-benzo[d]imidazol-2-yl)piperidin-1-yl)butan-1-one] |
| < 100 |  | COCCCn1c([C@@H]2CCCN(C(=O)C[C@H](N)Cc3ccc(-c4ccc(C(=O)NCCOC(C)C)cc4)cc3)C2)nc2ccccc21 [Compound 179, 4′-((R)-2-amino-4-((R)-3-(1-(3-methoxypropyl)-1H-benzo[d]imidazol-2-yl)piperidin-1-yl)-4-oxobutyl)-N-(2-isopropoxyethyl)biphenyl-4-carboxamide] |
| 100 to 1000 |  | CC(=O)NCCn1c([C@@H]2CCCN(C(=O)C[C@H](N)Cc3ccc4ccccc4c3)C2)nc2ccccc21 [Compound 239, N-(2-(2-((R)-1((R)-3-amino-4-(naphthalen-2-yl)butanoyl)piperidin-3-yl)-1H-benzo[d]imidazol-1-yl)ethyl)acetamide] |
